# Test results as given in patent US20230295212A1 (ROME Therapeutics, Inc., priority 2022, published 2023).
# pIC50: −log10 of the molar value.
# Target: T1, LINE1 reverse transcriptase (Homo sapiens, UniProt O00370)
# T1 construct: expressed in transfected cells; host or cells: HeLa Tet-On 3G (Takara, cat no 631183)
# Test: Stable artificial-intron Cis LINE1 reporter assay (HeLa Tet-On 3G, Firefly luciferase)
# Type: cell-based
# Settings: HeLa L1 artificial-intron reporter cells, doxycycline 500 ng/mL, 72 h, class symbols
# Summary of the method: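 HeLa Tet-On 3G clone stably carrying a bi-directional doxycycline-inducible artificial-intron LINE1 reporter, plated at 8,000 cells/well onto serially diluted compound. Expression induced with 500 ng/mL doxycycline (final); Firefly luciferase luminescence (Dual-Glo) read 72 h after plating as LINE1 activity.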
# T1 sequence (O00370 whole entry, looked up): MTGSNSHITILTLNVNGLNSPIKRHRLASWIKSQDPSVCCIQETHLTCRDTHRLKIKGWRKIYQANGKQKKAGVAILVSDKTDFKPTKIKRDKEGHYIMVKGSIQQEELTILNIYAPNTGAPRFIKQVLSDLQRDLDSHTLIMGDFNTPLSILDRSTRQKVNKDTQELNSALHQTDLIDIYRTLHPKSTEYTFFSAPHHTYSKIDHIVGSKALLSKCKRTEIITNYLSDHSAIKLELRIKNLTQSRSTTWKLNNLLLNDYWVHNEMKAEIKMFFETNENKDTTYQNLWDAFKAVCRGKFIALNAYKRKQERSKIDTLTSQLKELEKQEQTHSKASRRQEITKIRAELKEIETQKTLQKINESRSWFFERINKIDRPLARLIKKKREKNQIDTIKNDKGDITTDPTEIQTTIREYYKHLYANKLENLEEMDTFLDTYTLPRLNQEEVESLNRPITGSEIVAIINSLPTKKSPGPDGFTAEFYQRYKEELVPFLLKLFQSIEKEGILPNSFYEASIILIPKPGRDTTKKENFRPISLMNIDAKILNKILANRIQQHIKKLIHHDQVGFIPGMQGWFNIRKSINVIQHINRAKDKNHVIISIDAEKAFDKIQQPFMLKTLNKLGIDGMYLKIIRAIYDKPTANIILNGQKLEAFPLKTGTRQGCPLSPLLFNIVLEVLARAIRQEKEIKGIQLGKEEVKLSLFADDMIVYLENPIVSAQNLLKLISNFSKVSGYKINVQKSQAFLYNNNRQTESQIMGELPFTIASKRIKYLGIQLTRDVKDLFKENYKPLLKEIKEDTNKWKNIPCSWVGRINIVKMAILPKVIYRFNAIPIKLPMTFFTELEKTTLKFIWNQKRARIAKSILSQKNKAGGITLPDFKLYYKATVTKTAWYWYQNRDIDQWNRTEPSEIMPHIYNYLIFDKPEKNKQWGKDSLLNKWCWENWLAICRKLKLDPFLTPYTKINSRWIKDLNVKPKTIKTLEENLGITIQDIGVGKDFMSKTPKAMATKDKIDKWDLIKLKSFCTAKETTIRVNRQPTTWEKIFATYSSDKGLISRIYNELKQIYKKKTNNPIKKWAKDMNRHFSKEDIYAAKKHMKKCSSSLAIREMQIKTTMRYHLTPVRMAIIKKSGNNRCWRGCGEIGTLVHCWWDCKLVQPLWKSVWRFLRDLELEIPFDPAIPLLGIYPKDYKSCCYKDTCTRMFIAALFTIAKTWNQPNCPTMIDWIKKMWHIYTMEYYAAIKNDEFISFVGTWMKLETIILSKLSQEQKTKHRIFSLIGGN
row,Compound,pIC50
1,"CC[C@]1(CO)O[C@@H](n2cnc3c(O)nc(N)nc32)C[C@@H]1O [Compound 115, 2-amino-9-((2R,4S,5R)-5-ethyl-4-hydroxy-5-(hydroxymethyl)tetrahydrofuran-2-yl)-1,9-dihydro-6H-purin-6-one]",≥ 7.30
2,"C#C[C@]1(CO)O[C@@H](n2cc(F)c(N)nc2=O)[C@@H](O)[C@@H]1O [Compound 116, 4-amino-1-((2R,3S,4S,5R)-5-ethynyl-3,4-dihydroxy-5-(hydroxymethyl)tetrahydrofuran-2-yl)-5-fluoropyrimidin-2(1H)-one]",6.60 to 7.00
3,"Nc1ccn([C@@H]2O[C@@](CO)(CCl)[C@@H](O)C2(F)F)c(=O)n1 [Compound 119, 4-amino-1-((2R,4R,5R)-5-(chloromethyl)-3,3-difluoro-4-hydroxy-5-(hydroxymethyl)tetrahydrofuran-2-yl)pyrimidin-2(1H)-one]",7.00 to 7.30
4,"Nc1nc(=O)n([C@H]2C[C@H](O)[C@](CO)(C3CC3)O2)cc1F [Compound 120, 4-amino-1-[(2R,4S,5R)-5-cyclopropyl-4-hydroxy-5-(hydroxymethyl)oxolan-2-yl]-5-fluoropyrimidin-2-one]",6.00 to 6.60
5,"Nc1ccn([C@@H]2O[C@@](CO)(C3CC3)[C@@H](O)[C@@H]2F)c(=O)n1 [Compound 121, 4-amino-1-[(2R,3S,4R,5R)-5-cyclopropyl-3-fluoro-4-hydroxy-5-(hydroxymethyl)oxolan-2-yl] pyrimidin-2-one]",6.60 to 7.00
6,"Nc1nc(=O)n([C@@H]2O[C@@](CO)(C3CC3)[C@@H](O)[C@@H]2F)cc1F [Compound 122, 4-amino-1-[(2R,3S,4R,5R)-5-cyclopropyl-3-fluoro-4-hydroxy-5-(hydroxymethyl)oxolan-2-yl]-5-fluoropyrimidin-2-one]",6.00 to 6.60
7,"Nc1nc(=O)n([C@@H]2O[C@](/C=C\F)(CO)[C@@H](O)[C@@H]2F)cc1F [Compound 123, 4-amino-5-fluoro-1-((2R,3S,4R,5R)-3-fluoro-5-((Z)-2-fluorovinyl)-4-hydroxy-5-(hydroxymethyl)tetrahydrofuran-2-yl)pyrimidin-2(1H)-one]",7.00 to 7.30
8,"Nc1nc(=O)n([C@@H]2O[C@@](CO)(CI)[C@@H](O)[C@@H]2F)cc1F [Compound 129, 4-amino-5-fluoro-1-((2R,3S,4R,5R)-3-fluoro-4-hydroxy-5-(hydroxymethyl)-5-(iodomethyl)tetrahydrofuran-2-yl)pyrimidin-2(1H)-one]",< 6.00
9,"Nc1nc(=O)n([C@@H]2O[C@](/C=C/Cl)(CO)[C@@H](O)[C@@H]2F)cc1F [Compound 131, 4-amino-1-[(2R,3S,4R,5R)-5(E)-(2-chloroethenyl)-3-fluoro-4-hydroxy-5-(hydroxymethyl)oxolan-2-yl]-5-fluoropyrimidin-2-one]",6.60 to 7.00
10,"Nc1nc(=O)n([C@@H]2O[C@](/C=C\Cl)(CO)[C@@H](O)[C@@H]2F)cc1F [Compound 132, 4-amino-1-[(2R,3S,4R,5R)-5-(2-chloroethenyl)-3-fluoro-4-hydroxy-5(Z)-(hydroxymethyl)oxolan-2-yl]-5-fluoropyrimidin-2-one]",< 6.00
11,CSC[C@]1(CO)O[C@@H](n2cc(F)c(N)nc2=O)[C@@H](F)[C@@H]1O [Compound 135],< 6.00
12,"Nc1nc(=O)n([C@@H]2O[C@@](CO)(CCl)[C@@H](O)[C@@H]2Cl)cc1F [Compound 137, 4-amino-1-[(2R,3S,4R,5R)-3-chloro-5-(chloromethyl)-4-hydroxy-5-(hydroxymethyl)oxolan-2-yl]-5-fluoropyrimidin-2-one]",6.00 to 6.60
13,"[N-]=[N+]=N[C@]1(CO)O[C@@H](c2cc(I)c3c(N)ncnn23)C[C@@H]1O [Compound 161, (2R,3S,5R)-5-(4-amino-5-iodopyrrolo[2,1-f][1,2,4]triazin-7-yl)-2-azido-2-(hydroxymethyl)tetrahydrofuran-3-ol]",7.00 to 7.30
14,"C=C=C[C@]1(CO)O[C@@H](n2cnc3c(N)nc(F)nc32)C[C@@H]1O [Compound 164, (2R,3S,5R)-5-(6-amino-2-fluoropurin-9-yl)-2-(hydroxymethyl)-2-(propa-1,2-dien-1-yl)oxolan-3-ol]",6.00 to 6.60
15,Nc1ccn([C@@H]2O[C@@](CO)(CBr)[C@@H](O)[C@@H]2F)c(=O)n1 [Compound 172],≥ 7.30
16,"CC(C)C(=O)OC[C@@]1(CCl)O[C@@H](n2cc(F)c(N)nc2=O)[C@@H](F)[C@@H]1OC(=O)C(C)C [Compound 173, (2R,3R,4S,5R)-5-(4-amino-5-fluoro-2-oxopyrimidin-1(2H)-yl)-2-(chloromethyl)-4-fluoro-2-((isobutyryloxy)methyl)tetrahydrofuran-3-yl isobutyrate]",6.00 to 6.60
17,"[2H]C([2H])(Cl)[C@]1(CO)O[C@@H](n2cc(F)c(N)nc2=O)[C@@H](F)[C@@H]1O [Compound 175, 4-amino-1-((2R,3S,4R,5R)-5-(chloromethyl-d2)-3-fluoro-4-hydroxy-5-(hydroxymethyl)tetrahydrofuran-2-yl)-5-fluoropyrimidin-2(1H)-one]",≥ 7.30
18,Cc1cn([C@@H]2O[C@@](CO)(CCl)[C@@H](O)[C@@H]2F)c(=O)[nH]c1=O [Compound 176],< 6.00
19,"Nc1nc(=O)n([C@@H]2OC(CO)(CO)[C@@H](O)[C@@H]2F)cc1F [Compound 177, 4-amino-5-fluoro-1-((2R,3S,4R)-3-fluoro-4-hydroxy-5,5-bis(hydroxymethyl)tetrahydrofuran-2-yl) pyrimidin-2(1H)-one]",< 6.00
20,"Cc1cn([C@@H]2O[C@@](CO)(N=[N+]=[N-])[C@@H](O)[C@@H]2F)c(=O)[nH]c1=O [Compound 178, 1-((2R,3S,4R,5R)-5-azido-3-fluoro-4-hydroxy-5-(hydroxymethyl)tetrahydrofuran-2-yl)-5-methylpyrimidine-2,4(1H,3H)-dione]",7.00 to 7.30
21,"O=c1[nH]c(=O)n([C@@H]2O[C@@](CO)(CCO)[C@@H](O)[C@@H]2F)cc1F [Compound 179, 5-fluoro-1-((2R,3S,4R,5R)-3-fluoro-4-hydroxy-5-(2-hydroxyethyl)-5-(hydroxymethyl)tetrahydrofuran-2-yl) pyrimidine-2,4(1H,3H)-dione]",< 6.00
22,"Cc1cn([C@H]2C[C@H](F)[C@@](C)(CO)O2)c(=O)[nH]c1=O [Compound 180, 1-((2R,4S,5R)-4-fluoro-5-(hydroxymethyl)-5-methyltetrahydrofuran-2-yl)-5-methylpyrimidine-2,4(1H,3H)-dione]",< 6.00

# Same assay, conditions: HeLa L1 artificial-intron reporter cells, doxycycline 500 ng/mL, 72 h, numeric bounds
row,Compound,pIC50
1,"NC(=O)[C@]1(CO)O[C@@H](n2cc(F)c(N)nc2=O)[C@@H](F)[C@@H]1O [Compound 138, (2R,3R,4S,5R)-5-(4-amino-5-fluoro-2-oxopyrimidin-1-yl)-4-fluoro-3-hydroxy-2-(hydroxymethyl)oxolane-2-carboxamide]",< 4.52
2,"NC[C@]1(CO)O[C@@H](n2cc(F)c(N)nc2=O)[C@@H](F)[C@@H]1O [Compound 139, 4-amino-1-[(2R,3S,4R,5R)-5-(aminomethyl)-3-fluoro-4-hydroxy-5-(hydroxymethyl)oxolan-2-yl]-5-fluoropyrimidin-2-one]",< 4.52
3,"CC(O)[C@]1(CO)O[C@@H](n2cc(F)c(=O)[nH]c2=O)[C@@H](F)[C@@H]1O (stereo partly drawn) [Compound 162, 5-fluoro-1-[(2R,3S,4R,5S)-3-fluoro-4-hydroxy-5-(1-hydroxyethyl)-5-(hydroxymethyl)oxolan-2-yl]-3H-pyrimidine-2,4-dione]",< 4.52
4,"O=c1[nH]c(=O)n([C@@H]2O[C@@](CO)(CCl)[C@@H](O)[C@@H]2F)cc1F [Compound 163, 1-[(2R,3S,4R,5R)-5-(chloromethyl)-3-fluoro-4-hydroxy-5-(hydroxymethyl)oxolan-2-yl]-5-fluoro-3H-pyrimidine-2,4-dione]",< 4.52
5,N#C[C@]1(CO)O[C@@H](n2cc(F)c(N)nc2=O)[C@@H](F)[C@@H]1O [Compound 166],< 4.52
6,"CC(C)C(=O)OC[C@@]1(CCl)O[C@@H](n2ncc(N)nc2=O)C[C@@H]1OC(=O)C(C)C [Compound 174, (2R,3S,5R)-5-(5-amino-3-oxo-1,2,4-triazin-2(3H)-yl)-2-(chloromethyl)-2-((isobutyryloxy)methyl)tetrahydrofuran-3-yl isobutyrate]",< 4.52
